What all share (test): relative viability (nuclei count vs DMSO), 5 days (fraction); higher = more cells survive
Compound in experiment [1]: C1=CC2=NC=CN=C2C=C1/C=C/3\C(=O)NC(=O)S3 + CCNC(=O)c1noc(-c2cc(C(C)C)c(O)cc2O)c1-c1ccc(CN2CCOCC2)cc1 [Luminespib] (partner 0.01 µM)
In outline:
(§1)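 Lung cancer cell lines were seeded in 1536-well plates and dosed by pin tool the next day, with either a single drug or a fixed anchor-drug dose combined with five library-drug doses (not always all listed) spaced in √10 steps. Five days later, one step fixed the cells and stained their nuclei (final 0.05% Triton X-100, 1% formaldehyde, 1 ug/ml Hoechst), and nuclei were counted on 4× images. Relative viability is the nuclei count in treated wells divided by the count in vehicle wells, and each value is the median of duplicate plates.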

Compound in the experiment “BGJ398 + Palbociclib”: CCN1CCN(c2ccc(Nc3cc(N(C)C(=O)Nc4c(Cl)c(OC)cc(OC)c4Cl)ncn3)cc2)CC1 [BGJ398] + CC(=O)c1c(C)c2cnc(Nc3ccc(N4CCNCC4)cn3)nc2n(C2CCCC2)c1=O [Palbociclib] (partner 0.5 µM)
Put shortly: as §1

Compound in the experiment “BGJ398 + Phenformin”: CCN1CCN(c2ccc(Nc3cc(N(C)C(=O)Nc4c(Cl)c(OC)cc(OC)c4Cl)ncn3)cc2)CC1 [BGJ398] + N=C(N)NC(=N)NCCc1ccccc1 [Phenformin] (partner 250 µM)
In outline:
as §1

Compound in the experiment “BGJ398 + Olaparib”: CCN1CCN(c2ccc(Nc3cc(N(C)C(=O)Nc4c(Cl)c(OC)cc(OC)c4Cl)ncn3)cc2)CC1 [BGJ398] + O=C(c1cc(Cc2n[nH]c(=O)c3ccccc23)ccc1F)N1CCN(C(=O)C2CC2)CC1 [Olaparib] (partner 8 µM)
Put shortly:
as §1

This note sets out measurements from the supplement of paper PMC10307832.

As for UMC-11, the relative viability in experiment [1] (first compound 0.02 µM) is 0.992; in experiment [1] (first compound 0.06325 µM), 1.11; in experiment [1] (first compound 0.2 µM) it was 1.05; in experiment [1] (first compound 0.6325 µM) it was 0.956; in experiment [1] (first compound 2 µM), 1.16; with BGJ398 + Palbociclib (first compound 0.01 µM), 0.327. Besides, the relative viability amounted to 0.276 with BGJ398 + Palbociclib (first compound 0.03162 µM); 0.36 with BGJ398 + Palbociclib (first compound 0.1 µM); 0.374 in the experiment with BGJ398 + Palbociclib (first compound 0.3162 µM); 0.351 with BGJ398 + Palbociclib (first compound 1 µM); 0.325 in the experiment with BGJ398 + Phenformin (first compound 0.01 µM); 0.344 with BGJ398 + Phenformin (first compound 0.03162 µM). The relative viability with BGJ398 + Phenformin (first compound 0.1 µM) worked out at 0.391; with BGJ398 + Phenformin (first compound 0.3162 µM) it was 0.341; with BGJ398 + Phenformin (first compound 1 µM) it was 0.341; with BGJ398 + Olaparib (first compound 0.01 µM) it was 0.316; in the experiment with BGJ398 + Olaparib (first compound 0.03162 µM) it was 0.447; with BGJ398 + Olaparib (first compound 0.1 µM), 0.376. For the same cell line, the relative viability in the experiment with BGJ398 + Olaparib (first compound 0.3162 µM) stood at 0.367; with BGJ398 + Olaparib (first compound 1 µM), 0.342.
